Results as given in US9919998B2, “Antibacterial agents: Nα-aroyl-N-aryl-phenylalaninamides” (priority 2014, dated 2018).
Converted amounts (≈) assume the structure as drawn.

Assays:
Format in all cases: cell-based
[1] = tested on: Mycobacterium tuberculosis H37Rv; assay: Microplate Alamar Blue assay (MABA) MIC, M. tuberculosis; conditions: read-out: MIC Mycobacterium tuberculosis H37Rv
From the text: (§1) Minimal inhibitory concentrations (MICs) in Mycobacterium tuberculosis H37Rv and Mycobacterium avium ATCC 25291 were quantified using microplate Alamar Blue assays as described (MABA; [Collins, L. & Franzblau, S. (1997) Microplate Alamar Blue assay versus BACTEC 460 system for high-throughput screening of compounds against Mycobacterium tuberculosis and Mycobacterium avium. Antimicrob. Agents Chemother. 41, 1004-1009]).

[2] = tested on: Mycobacterium avium ATCC 25291; assay: Microplate Alamar Blue assay (MABA) MIC, M. avium; conditions: ATCC25291, M. avium ATCC 25291
From the text: as §1

[3] = tested on: Mycobacterium smegmatis ATCC 19420; assay: Broth microdilution MIC, M. smegmatis; conditions: Mycolicibacterium smegmatis, ATCC19420, M. smegmatis ATCC 19420; read-out: MIC Mycobacterium smegmatis ATCC 19420
From the text: MICs in Mycobacterium smegmatis ATCC 19420 and Mycobacterium smegmatis ATCC 19420 derivatives were quantified using broth microdilution assays as described [Clinical and Laboratory Standards Institute (CLSI/NCCLS) (2009) Methods for Dilution Antimicrobial Susceptibility Tests for Bacteria That Grow Aerobically; Approved Standard, Eighth Edition. CLIS Document M07-A8 (CLIS, Wayne Pa.)].

[4] = tested on: Vero E6 ATCC CRL1586 cells; assay: Mammalian-cell cytotoxicity, minimal cytotoxic concentration (CellTiter96)
Experimental: Minimal cytotoxic concentrations (MCCs) against mammalian cells in culture were determined using Vero E6 ATCC CRL1586 cells and the CellTiter96 assay kit (Promega, Inc.). […]

Row | Structure (SMILES) | MIC [1] [µg/mL] | MIC [2] [µg/mL] | MIC [3] [µg/mL] | MCC mammalian cells Vero E6 ATCC CRL1586 [4] [µg/mL]
1 | O=C(NC(Cc1ccccc1)C(=O)Nc1cccc2[nH]ccc12)c1ccccc1 (centres unmarked) [II-27] | 12.5 (≈ 32.6 µM) | > 50 | 0.39 (≈ 1.02 µM) | 41
2 | COc1ccccc1NC(=O)C(Cc1ccccc1)NC(=O)c1ccccc1C (centres unmarked) [IX-68, N-(1-((2-methoxyphenyl)amino)-1-oxo-3-phenylpropan-2-yl)-2-methylbenzamide] | 3.12 (≈ 8.04 µM) | 6.25 (≈ 16.1 µM) | 0.39 (≈ 1 µM) | 17
3 | O=C(NC(Cc1ccccc1)C(=O)Nc1cccc2c1OCO2)c1cccs1 (centres unmarked) [IX-98, N-(1-(benzo[d][1,3]dioxol-4-ylamino)-1-oxo-3-phenylpropan-2-yl)thiophene-2-carboxamide] | 6.25 (≈ 15.8 µM) | 3.12 (≈ 7.92 µM) | 0.195 (≈ 0.494 µM) | 13
4 | Cc1ccc(F)cc1NC(=O)C(Cc1ccc(O)cc1)NC(=O)c1cccs1 (centres unmarked) [IX-188, N-(1-((5-fluoro-2-methylphenyl)amino)-3-(4-hydroxyphenyl)-1-oxopropan-2-yl)thiophene-2-carboxamide] | 1.56 (≈ 3.92 µM) | 1.56 (≈ 3.92 µM) | 0.097 (≈ 0.243 µM) | 48
5 | Cc1ccc(F)cc1NC(=O)C(Cc1ccc(O)cc1)NC(=O)c1ccccc1F (centres unmarked) [IX-184, 2-fluoro-N-(1-((5-fluoro-2-methylphenyl)amino)-3-(4-hydroxy-phenyl)-1-oxopropan-2-yl)benzamide] | 1.56 (≈ 3.8 µM) | 3.12 (≈ 7.61 µM) | 0.39 (≈ 0.95 µM) | 77
6 | O=C(NC(Cc1ccccc1)C(=O)Nc1cccc2[nH]ncc12)c1ccccc1F (centres unmarked) [IX-128, N-(1-((1H-indazol-4-yl)amino)-1-oxo-3-phenylpropan-2-yl)-2-fluorobenzamide] | 12.5 (≈ 31.1 µM) | 25 (≈ 62.1 µM) | 0.39 (≈ 0.969 µM) | 58
7 | COc1cccc(NC(=O)C(Cc2ccccc2)NC(=O)c2ccccc2F)c1C (centres unmarked) [IX-108, 2-fluoro-N-(1-((3-methoxy-2-methylphenyl)amino)-1-oxo-3-phenylpropan-2-yl)benzamide] | 12.5 (≈ 30.8 µM) | 25 (≈ 61.5 µM) | 0.78 (≈ 1.92 µM) | 80
8 | O=C(NC(Cc1ccccc1)C(=O)Nc1ccccc1N1CCNCC1)c1cccc2[nH]ccc12 (centres unmarked) [IX-242, N-(1-oxo-3-phenyl-1-((2-(piperazin-1-yl)phenyl)amino)propan-2-yl)-1H-indole-4-carboxamide] | 3.12 (≈ 6.68 µM) | 0.78 (≈ 1.67 µM) | 0.04 (≈ 0.0855 µM) | 12
9 | CCCc1cccc(NC(=O)C(Cc2ccccc2)NC(=O)c2ccccc2)c1C (centres unmarked) [I-127] | > 50 | > 50 | 3.12 (≈ 7.8 µM) | 100
10 | Cc1ccccc1C(=O)NC(Cc1ccccc1)C(=O)Nc1cc(F)ccc1OCF (centres unmarked) [IX-111, N-(1-((5-fluoro-2-(fluoromethoxy)phenyl)amino)-1-oxo-3-phenyl-propan-2-yl)-2-methylbenzamide] | 0.39 (≈ 0.919 µM) | 0.78 (≈ 1.84 µM) | 0.39 (≈ 0.919 µM) | 100
11 | O=C(NC(Cc1ccccc1)C(=O)Nc1cccc2c1OCO2)c1ccccc1F (centres unmarked) [IX-99, N-(1-(benzo[d][1,3]dioxol-4-ylamino)-1-oxo-3-phenylpropan-2-yl)-2-fluorobenzamide] | 3.12 (≈ 7.69 µM) | 6.25 (≈ 15.4 µM) | 0.195 (≈ 0.48 µM) | >100
12 | Cc1ccc(Br)cc1NC(=O)C(Cc1ccc(O)cc1)NC(=O)c1ccccc1 (centres unmarked) [IX-103, N-(1-((5-bromo-2-methylphenyl)amino)-3-(4-hydroxyphenyl)-1-oxopropan-2-yl)benzamide] | 12.5 (≈ 27.6 µM) | 12.5 (≈ 27.6 µM) | 0.78 (≈ 1.72 µM) | 62
13 | COc1ccccc1NC(=O)C(Cc1ccc(O)cc1)NC(=O)c1ccccc1 (centres unmarked) [IX-26, N-(3-(4-hydroxyphenyl)-1-((2-methoxyphenyl)amino)-1-oxopropan-2-yl)benzamide] | 25 (≈ 64 µM) | 50 (≈ 128 µM) | 1.25 (≈ 3.2 µM) | >100
14 | O=C(NC(Cc1ccccc1)C(=O)Nc1ccccc1N1CCNCC1)c1ccccc1 (centres unmarked) [IX-150, N-(1-oxo-3-phenyl-1-((2-(piperazin-1-yl)phenyl)amino)propan-2-yl)-benzamide] | 6.25 (≈ 14.6 µM) | 3.12 (≈ 7.29 µM) | 0.39 (≈ 0.91 µM) | 38
15 | O=C(NC(Cc1ccccc1)C(=O)Nc1ccccc1N1CCCC1)c1ccccc1 (centres unmarked) [I-192] | 9.4 (≈ 22.7 µM) | 25 (≈ 60.5 µM) | 0.78 (≈ 1.89 µM) | >100
16 | Cc1ccc(F)cc1NC(=O)C(Cc1ccccc1)NC(=O)c1ccccc1Cl (centres unmarked) [IX-82, 2-chloro-N-(1-((5-fluoro-2-methylphenyl)amino)-1-oxo-3-phenylpropan-2-yl)benzamide] | 1.56 (≈ 3.8 µM) | 3.12 (≈ 7.61 µM) | 0.39 (≈ 0.949 µM) | 20
17 | Cc1ccc(F)cc1NC(=O)C(Cc1ccc(O)cc1)NC(=O)c1ccccc1C (centres unmarked) [IX-186, N-(1-((5-fluoro-2-methylphenyl)amino)-3-(4-hydroxyphenyl)-1-oxopropan-2-yl)-2-methylbenzamide] | 1.56 (≈ 3.84 µM) | 3.12 (≈ 7.69 µM) | 0.39 (≈ 0.96 µM) | 78
18 | O=C(NC(Cc1ccccc1)C(=O)Nc1cccc2[nH]ccc12)c1ccccc1F (centres unmarked) [IX-91, N-(1-((1H-indol-4-yl)amino)-1-oxo-3-phenylpropan-2-yl)-2-fluorobenzamide] | 50 (≈ 125 µM) | 50 (≈ 125 µM) | 1.56 (≈ 3.89 µM) | 65
19 | Cc1ccccc1NC(=O)C(Cc1ccc(O)cc1)NC(=O)c1ccccc1F (centres unmarked) [IX-54, 2-fluoro-N-(3-(4-hydroxyphenyl)-1-oxo-1-(o-tolylamino)propan-2-yl)benzamide] | 25 (≈ 63.7 µM) | 50 (≈ 127 µM) | 1.56 (≈ 3.98 µM) | >100
20 | COc1ccc(Cl)cc1NC(=O)C(Cc1ccccc1)NC(=O)c1ccccc1F (centres unmarked) [IX-278, N-(1-((5-chloro-2-methoxyphenyl)amino)-1-oxo-3-phenylpropan-2-yl)-2-fluorobenzamide] | 0.78 (≈ 1.83 µM) | 2.3 (≈ 5.39 µM) | 0.39 (≈ 0.914 µM) | 29
21 | O=C(NC(Cc1ccc(O)cc1)C(=O)Nc1cccc2c1OCCO2)c1cccs1 (centres unmarked) [IX-34, N-(1-((2,3-dihydrobenzo[b][1,4]dioxin-5-yl)amino)-3-(4-hydroxyphenyl)-1-oxopropan-2-yl)thiophene-2-carboxamide] | 6.25 (≈ 14.7 µM) | 3.12 (≈ 7.36 µM) | 0.39 (≈ 0.919 µM) | 85
22 | Cc1ccccc1C(=O)NC(Cc1ccccc1)C(=O)Nc1cccc2[nH]ncc12 (centres unmarked) [IX-191, N-(1-((1H-indazol-4-yl)amino)-1-oxo-3-phenylpropan-2-yl)-2-methyl-benzamide] | 12.5 (≈ 31.4 µM) | 12.5 (≈ 31.4 µM) | 0.39 (≈ 0.979 µM) | >100
23 | CCc1cccc(NC(=O)C(Cc2ccccc2)NC(=O)c2ccccc2)c1C (centres unmarked) [I-116] | 6.25 (≈ 16.2 µM) | 6.25 (≈ 16.2 µM) | 0.78 (≈ 2.02 µM) | 90
24 | O=C(NC(Cc1ccccc1)C(=O)Nc1cccc2cc[nH]c12)c1ccccc1Cl (centres unmarked) [IX-95, N-(1-((1H-indol-7-yl)amino)-1-oxo-3-phenylpropan-2-yl)-2-chlorobenzamide] | 12.5 (≈ 29.9 µM) | 25 (≈ 59.8 µM) | 0.39 (≈ 0.933 µM) | 20
25 | Cc1ccccc1C(=O)NC(Cc1ccccc1)C(=O)Nc1ccccc1OC(F)F (centres unmarked) [IX-120, N-(1-((2-(difluoromethoxy)phenyl)amino)-1-oxo-3-phenylpropan-2-yl)-2-methylbenzamide] | 3.12 (≈ 7.36 µM) | 3.12 (≈ 7.36 µM) | 0.19 (≈ 0.448 µM) | >100
26 | O=C(NC(Cc1ccc(O)cc1)C(=O)Nc1ccccc1N1CCOCC1)c1ccccc1F (centres unmarked) [IX-155, 2-fluoro-N-(3-(4-hydroxyphenyl)-1-((2-morpholinophenyl)amino)-1-oxopropan-2-yl)benzamide] | 1.56 (≈ 3.37 µM) | 12.5 (≈ 27 µM) | 0.195 (≈ 0.421 µM) | 77
27 | Cc1c(F)cccc1NC(=O)C(Cc1ccccc1)NC(=O)c1ccccc1 (centres unmarked) [I-73] | > 50 | > 50 | 0.78 (≈ 2.07 µM) | 19
28 | Cc1ccccc1C(=O)NC(Cc1ccccc1)C(=O)Nc1cccc2cnccc12 (centres unmarked) [IX-69, N-(1-(isoquinolin-5-ylamino)-1-oxo-3-phenylpropan-2-yl)-2-methylbenzamide] | 3.12 (≈ 7.63 µM) | 3.12 (≈ 7.63 µM) | 0.39 (≈ 0.952 µM) | >100
29 | COc1ccccc1NC(=O)C(Cc1ccc(O)cc1)NC(=O)c1cccs1 (centres unmarked) [IX-32, N-(3-(4-hydroxyphenyl)-1-((2-methoxyphenyl)amino)-1-oxopropan-2-yl)thiophene-2-carboxamide] | 12.5 (≈ 31.5 µM) | 6.25 (≈ 15.8 µM) | 0.195 (≈ 0.492 µM) | 100
